Results on one compound are retold here after patent US8337835B2, “Use of an endogenous ligand for peroxisome proliferator activated receptor alpha to treat liver disorders” (priority 2009, dated 2012).

The target in assay [1] is T1, PPARα ligand binding domain (LBD) (Homo sapiens, UniProt Q07869).
T1 construct: 6xHis; made in house
T1 sequence (Q07869 239-466 limits assumed): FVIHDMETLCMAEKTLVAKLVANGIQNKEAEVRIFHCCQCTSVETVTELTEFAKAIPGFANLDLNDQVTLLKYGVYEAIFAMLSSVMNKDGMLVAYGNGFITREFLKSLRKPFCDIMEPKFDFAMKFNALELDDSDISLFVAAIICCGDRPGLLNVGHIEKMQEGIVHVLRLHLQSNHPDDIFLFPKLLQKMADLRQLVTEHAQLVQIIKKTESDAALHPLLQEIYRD
Nature of the assay: ALPHASCREEN binding assay, PPARα ligand binding domain. The method, then: (§1) Binding of 16:0/18:1-GPC and known agonists to the ligand binding domain (LBD) of PPARα in the presence of various peptide motifs was determined by ALPHASCREEN™ assay (Proc Natl Acad Sci USA 105, pp. 5034-5039, 2008). Experiments used 100 nM receptor LBD, purified as 6× His tag fusion proteins (Mol Cell 17, pp. 491-502, 2005), and 20 nM of N-terminal biotinylated CBP1 peptide or other coactivator peptides in the presence of 5 μg/ml donor and acceptor beads in 50 mM MOPS (pH 7.4), 100 mM NaCl, and 0.1 mg/ml BSA for 90 min at 25° C. Signals were generated in the absence or the presence of ligand. Identical experiments were performed using the PPARδ and PPARγ LBDs.
(§2) Stealth™ siRNA oligonucleotides were used to inhibit the gene expression of mouse ChPT1 ([…]) (SEQ ID NO: 1) and CEPT1 ([…]) (SEQ ID NO: 2) were from Invitrogen (Carlsbad, Calif.). […] Expression of ACO and CPT-1 was also assessed 24 h after addition of 50 μM 16:0/18:1-GPC in a subset of Hepa 1-6 cells previously treated with CEPT1 siRNA. mRNA levels are normalized to control L32 ribosomal mRNA. […] FIGS. 6F-H show the binding of various peptide motifs to the purified PPARα (FIG. 6F), PPARδ (FIG. 6G), and PPARγ (FIG. 6H) LBD in the presence of 5 μM of the corresponding PPAR agonist or 16:0/18:1-GPC as measured by AlphaScreen assays. […]
(In Alpha technology, singlet oxygen from a donor bead excites a nearby acceptor bead.)

In assay [2] the target is T2, PPARγ LBD (Homo sapiens, UniProt P37231).
T2 construct: Identical experiments were performed using the PPARδ and PPARγ LBDs; 6xHis; made in house
T2 sequence (P37231 238-503 limits assumed): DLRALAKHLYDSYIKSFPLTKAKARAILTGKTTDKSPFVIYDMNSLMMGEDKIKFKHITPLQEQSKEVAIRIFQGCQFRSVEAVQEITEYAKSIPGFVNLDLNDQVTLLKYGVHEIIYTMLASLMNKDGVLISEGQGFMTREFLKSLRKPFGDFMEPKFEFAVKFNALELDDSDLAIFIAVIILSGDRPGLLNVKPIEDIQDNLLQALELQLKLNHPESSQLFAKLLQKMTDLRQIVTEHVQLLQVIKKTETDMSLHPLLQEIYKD
Nature of the assay: ALPHASCREEN binding assay, PPARγ ligand binding domain. The following applies: 5 μM. The protocol:
as §1, §2

Assay [3] has as its target T3, PPARδ LBD (Homo sapiens, UniProt Q03181).
T3 construct: Identical experiments were performed using the PPARδ and PPARγ LBDs; 6xHis; made in house
T3 sequence (Q03181 211-439 limits assumed): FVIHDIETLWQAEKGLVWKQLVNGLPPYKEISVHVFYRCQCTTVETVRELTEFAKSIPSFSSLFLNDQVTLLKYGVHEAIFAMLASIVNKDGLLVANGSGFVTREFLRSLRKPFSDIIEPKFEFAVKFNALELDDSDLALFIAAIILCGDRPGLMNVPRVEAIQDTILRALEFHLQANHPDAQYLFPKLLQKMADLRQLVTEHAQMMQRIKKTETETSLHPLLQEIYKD
Nature of the assay: ALPHASCREEN binding assay, PPARδ ligand binding domain. The following applies: 5 μM; compared with PPARδ activator GW0742. The protocol: as §1, §2

Turning to `CCCCCCCC/C=C\CCCCCCCC(=O)O[C@H](COC(=O)CCCCCCCCCCCCCCC)COP(=O)([O-])OCC[N+](C)(C)C` [16:0/18:1-GPC, 1-palmitoyl-2-oleoyl-sn-glycerol-3-phosphocholine], the “binding affinity to PPARα compared with Wy14,643” value in assay [1] was “binds with sufficient affinity to PPARα comparable to Wy14,643”. The “binding to PPARγ” value in assay [2] is recorded as “does not appear to bind”. The “interaction with PPARδ” value in assay [3] is given as “insubstantial”.
